Results: ChEMBL document CHEMBL1129816, “Synthesis of 4-trifluoromethylsteroids: A novel class of steroid 5-reductase inhibitors” (Bioorg Med Chem Lett, 1997)

What was measured:
[1] = In vitro inhibitory activity against Steroid 5-alpha-reductase by using isotope method
[2] = In vitro inhibitory activity against Steroid 5-alpha-reductase by using enzymic kinetics method

Question: Which Ki [1] does the source give for `C[C@]12CCC(=O)C(C(F)(F)F)=C1CCC1C2CC[C@]2(C)C(=O)CCC12` (stereo partly drawn) here?
Answer: The Ki was 95.2 nM.

Question: What about the Ki [2] of the same compound?
Answer: Its Ki is 28.8 nM.

Question: What does the source list for `CC(C)(C)NC(=O)[C@H]1CC[C@H]2[C@@H]3CC[C@H]4NC(=O)C=C[C@]4(C)[C@H]3CC[C@]12C` [FINASTERIDE]?
Answer: Ki [1]: 88.2 nM; Ki [2]: 54.7 nM

Question: What does the source list for `CC(C)(C)NC(=O)[C@H]1CCC2C3CCC4=C(C(F)(F)F)C(=O)CC[C@]4(C)C3CC[C@@]21C` (stereo partly drawn)?
Answer: Ki [1]: 20.9 nM; Ki [2]: 20.2 nM

Question: Which Ki [1] does the source give for `CC(=O)[C@H]1CCC2C3CCC4=C(C(F)(F)F)C(=O)CC[C@]4(C)C3CC[C@@]21C` (stereo partly drawn) here?
Answer: Its Ki is > 1000 nM.

Question: What about the Ki [2] of the same compound?
Answer: Its Ki is > 1000 nM.
